Tested on: Ratte
Assay: PCA test in the rat, oral administration
Assay type: in vivo
Conditions: factor by which the ED50 is lower than that of Verbindung A (no absolute ED50 printed)

CC(C)c1ccc(Nc2ccc(C(=O)O)cc2C(=O)O)nc1
Fold lower ED50 than compound A (rat PCA test, oral): ca. 100 mal

Reference: EP0056114A1, “Pyridylamino benzoic acids, their preparation and use” (C.H. BOEHRINGER SOHN, priority 1981, dated 1982)
